Test results: PubChem BioAssay (NCI)
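Cultured in 96-well plates, cells were exposed to test compound for 48 hours across five concentrations. Definition used: TGI = concentration required for complete inhibition of growth.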

Columns and labels:
Assay in all cases: growth of human tumour cells (NCI), 48 h
[1] = tested on: SK-OV-3 ovarian
[2] = tested on: COLO 205 colon
[3] = tested on: SF-295 CNS
[4] = tested on: 786-0 renal
[5] = tested on: DU-145 prostate
[6] = tested on: UACC-62 melanoma
[7] = tested on: SK-MEL-28 melanoma
[8] = tested on: HOP-62 NSCLC
[9] = tested on: HCT-116 colon
[10] = tested on: HOP-92 NSCLC
[11] = tested on: MCF7 breast
[12] = tested on: TK-10 renal
[13] = tested on: BT-549 breast
[14] = tested on: UACC-257 melanoma
[15] = tested on: A549 NSCLC
[16] = tested on: SW-620 colon
[17] = tested on: NCI-H23 lung
[18] = tested on: IGROV1 ovarian
[19] = tested on: NCI-H226 lung
[20] = tested on: LOX IMVI melanoma

SMILES | TGI [1] | TGI [2] | TGI [3] | TGI [4] | TGI [5] | TGI [6] | TGI [7] | TGI [8] | TGI [9] | TGI [10] | TGI [11] | TGI [12] | TGI [13] | TGI [14] | TGI [15] | TGI [16] | TGI [17] | TGI [18] | TGI [19] | TGI [20]
O=C1N[C@H]2C(=O)c3c(Cl)sc(Cl)c3[C@H]2O1 | 28.9 µM | 21.3 µM | 32.1 µM | 31.3 µM | 23.7 µM | 28.2 µM | 23.2 µM | 34.5 µM | 8.73 µM | 26.4 µM | 52.5 µM | 70.8 µM | 54.5 µM | 23 µM | 40 µM | 5.4 µM | 22.5 µM | 10.6 µM | > 100 µM | 6.97 µM
CC(C)(Cl)C(Br)CCC(CBr)=C(Cl)CCl (mixture of isomers) | > 8.72 µM | 1.11 µM | > 10 µM | 3.04 µM | > 10 µM | 3.71 µM | 4.41 µM | > 6.85 µM | 3.63 µM | 3.5 µM | 4.79 µM | > 5.76 µM | 4.14 µM | 4.89 µM | > 10 µM | 5.6 µM | 5.42 µM | 2.2 µM | > 2.46 µM | 3.59 µM
CC(=O)Nc1ccc(-c2nc3ccccc3s2)cc1Cl | > 100 µM | > 100 µM | > 100 µM | > 100 µM | > 92.4 µM | > 100 µM | > 100 µM | > 100 µM | > 100 µM | > 100 µM | > 100 µM | 0.445 µM | > 100 µM | > 100 µM | > 100 µM | > 100 µM | > 100 µM | > 100 µM | > 100 µM | > 100 µM
Cc1ccc(-c2cn3c(nc4ccccc43)c(-c3ccccc3)n2)cc1 | 47.9 µM | > 100 µM | > 67.1 µM | 49.2 µM | > 100 µM | > 72.5 µM | > 100 µM | 43.7 µM | > 100 µM | 56.4 µM | > 100 µM | > 76.5 µM | > 77 µM | > 100 µM | > 100 µM | > 100 µM | 80.8 µM | > 100 µM | > 100 µM | > 100 µM
COc1ccc(/C=N/NC(=O)c2ccccc2Nc2ccccc2C(=O)N/N=C/c2ccc(OC)cc2)cc1 | > 100 µM | > 100 µM | > 100 µM | > 100 µM | > 100 µM | > 100 µM | > 100 µM | > 100 µM | > 100 µM | > 100 µM | > 100 µM | > 100 µM | > 100 µM | > 100 µM | > 100 µM | > 100 µM | > 100 µM | > 100 µM | > 100 µM | > 100 µM
Cc1nc2c(=O)n(C)c(=O)nc-2n(CCO)c1C | > 100 µM | > 100 µM | > 100 µM | > 100 µM | > 100 µM | > 100 µM | > 100 µM | > 100 µM | > 100 µM | > 100 µM | > 100 µM | > 100 µM | > 100 µM | > 100 µM | > 100 µM | > 100 µM | > 100 µM | > 100 µM | > 100 µM | > 100 µM
CCOC(=O)c1c(C)noc1/N=N/N(CCO)CCO | > 100 µM | 70.1 µM | > 100 µM | > 100 µM | > 100 µM | > 100 µM | > 100 µM | > 100 µM | > 100 µM | 88.5 µM | > 100 µM | > 100 µM | > 100 µM | 86.5 µM | > 100 µM | > 100 µM | > 100 µM | > 100 µM | 63.5 µM | > 100 µM
CCCCCCCC/C=C\CCCCCCCC(=O)OC[C@]1(CO)CCC(=O)O1 | > 100 µM | > 100 µM | > 100 µM | > 100 µM | > 100 µM | > 100 µM | > 100 µM | > 100 µM | > 100 µM | > 100 µM | > 100 µM | > 100 µM | > 100 µM | > 100 µM | > 100 µM | > 100 µM | > 100 µM | > 100 µM | > 100 µM | > 100 µM
O=C1N(CN2CCOCC2)CN(CN2CCOCC2)C(=O)N1Cc1ccc(-c2ccc(CN3C(=O)N(CN4CCOCC4)CN(CN4CCOCC4)C3=O)cc2)cc1 | > 100 µM | > 41.9 µM | 65.6 µM | 79.4 µM | 40.1 µM | 37.7 µM | 36.2 µM | > 57.8 µM | 29.7 µM | 36.4 µM | > 100 µM | 43.4 µM | 39.1 µM | 37.9 µM | 57.6 µM | 30.7 µM | 47.5 µM | 46.4 µM | > 77.3 µM | 40.6 µM
